Measurements as given in the NIST ThermoML archive (doi:10.1016/j.jct.2017.07.040).
Numbers after ± are expanded uncertainties.

Test: mn = molality of the nth substance listed, in mol/kg
Conditions: 101 kPa, Liquid; for viscosity: Capillary tube (Ostwald / Ubbelohde) method; for speed of sound: Frequency=6 MHz, Linear variable-path acoustic interferometer; for mass density: Vibrating tube method

**Q.** Which results are given for `CC1(C)S[C@@H]2[C@H](NC(=O)[C@H](N)c3ccccc3)C(=O)N2[C@H]1C(=O)[O-].[Na+]` [Ampicillin Sodium] + O?
**A.** viscosity (293.15 K, m1 = 0.035): 1.034 ± 0.021 mPa·s; viscosity (293.15 K, m1 = 0.055): 1.072 ± 0.021 mPa·s; viscosity (293.15 K, m1 = 0.075): 1.109 ± 0.021 mPa·s; viscosity (293.15 K, m1 = 0.095): 1.113 ± 0.021 mPa·s; speed of sound (293.15 K, m1 = 0.035): 1487.5 ± 2.5 m/s; speed of sound (293.15 K, m1 = 0.055): 1492 ± 2.5 m/s; speed of sound (293.15 K, m1 = 0.075): 1496.1 ± 2.5 m/s; speed of sound (293.15 K, m1 = 0.095): 1501.3 ± 2.5 m/s; mass density (293.15 K, m1 = 0.035): 1002.84 ± 1.3 kg/m3; mass density (293.15 K, m1 = 0.055): 1005.4 ± 1.3 kg/m3; mass density (293.15 K, m1 = 0.075): 1007.9 ± 1.1 kg/m3; mass density (293.15 K, m1 = 0.095): 1010.54 ± 1.3 kg/m3; viscosity (298.15 K, m1 = 0.035): 0.9268 ± 0.021 mPa·s; viscosity (298.15 K, m1 = 0.055): 0.9663 ± 0.021 mPa·s; viscosity (298.15 K, m1 = 0.075): 1.008 ± 0.021 mPa·s; viscosity (298.15 K, m1 = 0.095): 1.05 ± 0.021 mPa·s; speed of sound (298.15 K, m1 = 0.035): 1501.6 ± 2.5 m/s; speed of sound (298.15 K, m1 = 0.055): 1505.6 ± 2.5 m/s; speed of sound (298.15 K, m1 = 0.075): 1509.6 ± 2.5 m/s; speed of sound (298.15 K, m1 = 0.095): 1515 ± 2.5 m/s; mass density (298.15 K, m1 = 0.035): 1001.64 ± 1.3 kg/m3; mass density (298.15 K, m1 = 0.055): 1004.16 ± 1.3 kg/m3; mass density (298.15 K, m1 = 0.075): 1006.66 ± 1.3 kg/m3; mass density (298.15 K, m1 = 0.095): 1009.25 ± 1.3 kg/m3; viscosity (303.15 K, m1 = 0.035): 0.8381 ± 0.021 mPa·s; viscosity (303.15 K, m1 = 0.055): 0.8814 ± 0.021 mPa·s; viscosity (303.15 K, m1 = 0.075): 0.9262 ± 0.021 mPa·s; viscosity (303.15 K, m1 = 0.095): 0.9736 ± 0.021 mPa·s; speed of sound (303.15 K, m1 = 0.035): 1514 ± 2.5 m/s; speed of sound (303.15 K, m1 = 0.055): 1518.1 ± 2.5 m/s; speed of sound (303.15 K, m1 = 0.075): 1522.1 ± 2.5 m/s; speed of sound (303.15 K, m1 = 0.095): 1526 ± 2.5 m/s; mass density (303.15 K, m1 = 0.035): 1000.19 ± 1.3 kg/m3; mass density (303.15 K, m1 = 0.055): 1002.69 ± 1.2 kg/m3; mass density (303.15 K, m1 = 0.075): 1005.1 ± 1.3 kg/m3; mass density (303.15 K, m1 = 0.095): 1007.7 ± 1.3 kg/m3; viscosity (308.15 K, m1 = 0.035): 0.7612 ± 0.021 mPa·s; viscosity (308.15 K, m1 = 0.055): 0.8077 ± 0.021 mPa·s; viscosity (308.15 K, m1 = 0.075): 0.8543 ± 0.021 mPa·s; viscosity (308.15 K, m1 = 0.095): 0.9016 ± 0.021 mPa·s; speed of sound (308.15 K, m1 = 0.035): 1524.7 ± 2.5 m/s; speed of sound (308.15 K, m1 = 0.055): 1529 ± 2.5 m/s; speed of sound (308.15 K, m1 = 0.075): 1533 ± 2.5 m/s; speed of sound (308.15 K, m1 = 0.095): 1535.7 ± 2.5 m/s; mass density (308.15 K, m1 = 0.035): 998.531 ± 1.3 kg/m3; mass density (308.15 K, m1 = 0.055): 1001.01 ± 1.2 kg/m3; mass density (308.15 K, m1 = 0.075): 1003.04 ± 1.2 kg/m3; mass density (308.15 K, m1 = 0.095): 1005.84 ± 1.3 kg/m3; viscosity (313.15 K, m1 = 0.035): 0.6978 ± 0.02 mPa·s; viscosity (313.15 K, m1 = 0.055): 0.748 ± 0.021 mPa·s; viscosity (313.15 K, m1 = 0.075): 0.7967 ± 0.021 mPa·s; viscosity (313.15 K, m1 = 0.095): 0.8021 ± 0.021 mPa·s; speed of sound (313.15 K, m1 = 0.035): 1533.8 ± 2.5 m/s; speed of sound (313.15 K, m1 = 0.055): 1538 ± 2.5 m/s; speed of sound (313.15 K, m1 = 0.075): 1542.5 ± 2.5 m/s; speed of sound (313.15 K, m1 = 0.095): 1546.1 ± 2.5 m/s; mass density (313.15 K, m1 = 0.035): 996.661 ± 1.3 kg/m3; mass density (313.15 K, m1 = 0.055): 999.128 ± 1.2 kg/m3; mass density (313.15 K, m1 = 0.075): 1000.49 ± 1.1 kg/m3; mass density (313.15 K, m1 = 0.095): 1003.74 ± 1.4 kg/m3
